Test results taken from patent US9409876B2, “Bradykinin receptor antagonists and pharmaceutical compositions containing them” (DOMPE' FARMACEUTICI S.P.A., priority 2013, dated 2016).

molecular target: T1, BKB1 receptors (Homo sapiens, UniProt P46663); assay: Calcium Mobilization Assay (FLIPR), IMR-90 cells, BKB1; assay type: cell-based; conditions: IL-1 induced IMR-90 cells, agonist desArg10-kallidin (DAKD)
T1 construct: Human (IMR-90) lung fibroblast cells expressing native BKB1 receptors; endogenous in cells; host or cells: IMR-90 human lung fibroblasts, treated with human IL-1 to up-regulate BKB1
T1 sequence (P46663 1-353): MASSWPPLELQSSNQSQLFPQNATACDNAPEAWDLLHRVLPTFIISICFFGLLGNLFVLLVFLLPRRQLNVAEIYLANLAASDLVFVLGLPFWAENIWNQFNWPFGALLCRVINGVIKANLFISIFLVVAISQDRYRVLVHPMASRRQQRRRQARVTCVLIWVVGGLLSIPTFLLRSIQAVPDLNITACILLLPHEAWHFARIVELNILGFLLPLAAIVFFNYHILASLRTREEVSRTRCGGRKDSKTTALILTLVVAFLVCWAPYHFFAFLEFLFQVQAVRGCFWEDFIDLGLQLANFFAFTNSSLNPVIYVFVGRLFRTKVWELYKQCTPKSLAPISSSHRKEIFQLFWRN
Experimental: Calcium Mobilization Assay (FLIPR)—Human (IMR-90) lung fibroblast cells expressing native BKB1 receptors were harvested by trypsinization and seeded into black wall/clear bottom 96-well plates (Costar 3904; Corning Life Sciences, Acton, Mass.) at approximately 13,000 cells/well. After 1 day incubation, cells were treated with human IL-1 (0.35 ng/ml) in 10% FBS/MEM for 2 h to up-regulate BKB1 receptors. Induced cells were loaded with fluorescent calcium indicator by incubation with 2.3 µM Fluo-4/acetoxymethyl ester (Invitrogen) at 37° C. for 1.5 h in the presence of an anion transport inhibitor (2.5 mM probenecid in 1% FBS/MEM). Extracellular dye was removed by washing with assay buffer (2.5 mM probenecid, 0.1% BSA in 20 mM HEPES/HBSS without bicarbonate or phenol red, pH 7.5) and cell plates were kept in the dark until used. Test compounds were assayed at eight concentrations in triplicate.

| Molecule | IC50 [nM] |
| --- | --- |
| COc1ccccc1CN(C(=O)C1CCC(F)(F)CC1)C(C(=O)NCC1CCCO1)c1ccc(C)cc1 (stereo not shown) [23 (mix), 4,4-difluoro-N-(2-methoxybenzyl)-N-{1-(4-methylphenyl)-2-oxo-2-[(tetrahydrofuran-2-ylmethyl)amino]ethyl}cyclohexanecarboxamide] | 8400 |
| Cc1ccc(C(C(=O)NCC2CCCO2)N(CC2CCCC2)C(=O)CC2CCCC2)cc1 (stereo not shown) [51 (mix), 2-cyclopentyl-N-cyclopentylmethyl-N-{1-(4-methylphenyl)-2-oxo-2-[(tetrahydrofuran-2-ylmethyl)amino]ethyl}acetamide] | 13000 |
| COc1ccccc1CN(C(=O)Cc1c[nH]cn1)C(C(=O)NCC1CCCO1)c1ccc(C)cc1 (stereo not shown) [12 (mix), 2-(1H-imidazol-4-yl)-N-(2-methoxybenzyl)-N-{1-(4-methylphenyl)-2-oxo-2-[(tetrahydrofuran-2-ylmethyl)amino]ethyl}acetamide] | 98 |
| Cc1ccc(C(C(=O)NCC2CCCO2)N(Cc2cccc(C)c2)C(=O)CN(C)C)cc1 (stereo not shown) [35 (mix), 2-(dimethylamino)-N-(3-methylbenzyl)-N-{1-(4-methylphenyl)-2-oxo-2-[(tetrahydrofuran-2-ylmethyl)amino]ethyl}acetamide] | 1700 |
| COc1ccccc1CN(C(=O)CC(C)C)C(C(=O)NCC1CCCO1)c1ccc(C2CC2)cc1 (stereo not shown) [52 (mix), N-(2-methoxybenzyl]-N-[1-(4-cyclopropylphenyl)-2-oxo-2-[(tetrahydrofuran-2-yl)methylamino]ethyl)-3-methylbutanamide] | 63 |
| Cc1ccc(C(C(=O)NCC2CCCO2)N(CC2CCCC2)C(=O)Cc2cccc(C)c2)cc1 (stereo not shown) [45 (mix), N-(cyclopentylmethyl)-2-(3-methylphenyl)-N-{1-(4-methylphenyl)-2-oxo-2-[(tetrahydrofuran-2-ylmethyl)amino]ethyl}acetamide] | 13100 |
| COc1ccccc1CN(C(=O)Cc1cccc(F)c1F)[C@@H](C(=O)NC[C@H]1CCCO1)c1ccc(C)cc1 [Compound 3 (R,R), 2-(2,3-difluorophenyl)-N-(2-methoxybenzyl)-N-{(1R)-1-(4-methylphenyl)-2-oxo-2-[(2R)-(tetrahydrofuran-2-ylmethyl)amino]ethyl}acetamide] | 540 |
| N-(2-methoxybenzyl)-N-{(1S)-1-(4-methylphenyl)-2-oxo-2-[(2R)-(pyrrolidin-2-ylmethyl)amino]ethyl}-2-(1H-1,2,3-triazol-1-yl)acetate [55 (S,R)] | 120 |
| COc1ccccc1CN(C(=O)Cc1c(F)cccc1F)[C@@H](C(=O)NC[C@H]1CCCO1)c1ccc(C)cc1 [Compound 6 (R,R), 2-(2,6-difluorophenyl)-N-(2-methoxybenzyl)-N-{(1R)-1-(4-methylphenyl)-2-oxo-2-[(2R)-(tetrahydrofuran-2-ylmethyl)amino]ethyl}acetamide] | 456 |
| COc1ccccc1CN(C(=O)Cc1ccc(F)cc1)C(C(=O)NCC1CCCO1)c1ccc(C)cc1 (stereo not shown) [21 (mix)] | 3500 |
| Cc1ccc(C(C(=O)NCC2CCCO2)N(Cc2csc3ccccc23)C(=O)CN(C)C)cc1 (stereo not shown) [39 (mix), N-(1-benzothiophen-3-ylmethyl)-2-(dimethylamino)-N-{1-(4-methylphenyl)-2-oxo-2-[(tetrahydrofuran-2-ylmethyl)amino]ethyl}acetamide] | 1200 |
| Cc1ccc(C(C(=O)NCC2CCCO2)N(CC2CCCC2)C(=O)Cc2c[nH]cn2)cc1 (stereo not shown) [32 (mix), N-(cyclopentylmethyl)-2-(1H-imidazol-4-yl)-N-{1-(4-methylphenyl)-2-oxo-2-[(tetrahydrofuran-2-ylmethyl)amino]ethyl}acetamide] | 800 |
| COc1ccccc1CN(C(=O)c1ccc(C)cc1)C(C(=O)NCC1CCCO1)c1ccc(C)cc1 (stereo not shown) [20 (mix), 4-methyl-N-(2-methoxybenzyl)-N-{1-(4-methylphenyl)-2-oxo-2-[(tetrahydrofuran-2-ylmethyl)amino]ethyl}benzamide] | 6100 |
| COc1ccccc1CN(C(=O)CCC(C)=O)C(C(=O)NCC1CCCO1)c1ccc(C)cc1 (stereo not shown) [17 (mix), 4-oxo-N-(2-methoxybenzyl)-N-{1-(4-methylphenyl)-2-oxo-2-[(tetrahydrofuran-2-ylmethyl)amino]ethyl}pentanamide] | 1200 |
| CCC(=O)N(Cc1ccccc1OC)C(C(=O)NCC1CCCO1)c1ccc(C)cc1 (stereo not shown) [24 (mix), N-(2-methoxybenzyl)-N-{1-(4-methylphenyl)-2-oxo-2-[(tetrahydrofuran-2-ylmethyl)amino]ethyl}propanamide] | 13200 |
| COc1ccccc1CN(C(=O)Cc1ccc(C)cc1)C(C(=O)NCC1CCCO1)c1ccc(C)cc1 (stereo not shown) [19 (mix)] | 1400 |
| COc1ccccc1CN(C(=O)c1ccc(F)cc1)C(C(=O)NCC1CCCO1)c1ccc(C)cc1 (stereo not shown) [22 (mix), 4-fluoro-N-(2-methoxybenzyl)-N-{1-(4-methylphenyl)-2-oxo-2-[(tetrahydrofuran-2-ylmethyl)amino]ethyl}benzamide] | 8700 |
| COc1ccccc1CN(C(=O)C1CCC1)C(C(=O)NCC1CCCO1)c1ccc(C)cc1 (stereo not shown) [25 (mix), N-(2-methoxybenzyl)-N-{1-(4-methylphenyl)-2-oxo-2-[(tetrahydrofuran-2-ylmethyl)amino]ethyl}cyclobutanecarboxamide] | 15700 |
| COc1ccccc1CN(C(=O)c1ccc([N+](=O)[O-])cc1)C(C(=O)NCC1CCCO1)c1ccc(C)cc1 (stereo not shown) [28 (mix), N-(2-methoxybenzyl)-4-nitro-N-{1-(4-methylphenyl)-2-oxo-2-[(tetrahydrofuran-2-ylmethyl)amino]ethyl}benzamide] | 3000 |
| COc1ccccc1CN(C(=O)Cn1ccc2ccccc21)C(C(=O)NCC1CCCO1)c1ccc(C)cc1 (stereo not shown) [31 (mix), 2-(1H-indol-1-yl)-N-(2-methoxybenzyl)-N-{1-(4-methylphenyl)-2-oxo-2-[(tetrahydrofuran-2-ylmethyl)amino]ethyl}acetamide] | 268 |
| COc1ccccc1CC(=O)N(Cc1ccccc1OC)C(C(=O)NCC1CCCO1)c1ccc(C)cc1 (stereo not shown) [13 (mix)] | 300 |
| Cc1ccc(C(C(=O)NCC2CCCO2)N(Cc2cccnc2)C(=O)Cc2ccccc2C)cc1 (stereo not shown) [46 (mix), 2-(2-methylphenyl)-N-(pyridin-3-ylmethyl)-N-{1-(4-methylphenyl)-2-oxo-2-[(tetrahydrofuran-2-ylmethyl)amino]ethyl}acetamide] | 11700 |
| Cc1ccc(C(C(=O)NCC2CCCO2)N(CC2CCCCC2)C(=O)Cc2c[nH]cn2)cc1 (stereo not shown) [36 (mix), N-(cyclohexylmethyl)-2-(1H-imidazol-4-yl)-N-{1-(4-methylphenyl)-2-oxo-2-[(tetrahydrofuran-2-ylmethyl)amino]ethyl}acetamide] | 13800 |
| COc1ccccc1CN(C(=O)Cn1ccnn1)C(C(=O)NCC1CCCO1)c1ccc(C)cc1 (stereo not shown) [30 (mix), N-(2-methoxybenzyl)-N-{1-(4-methylphenyl)-2-oxo-2-[(tetrahydrofuran-2-ylmethyl)amino]ethyl}-2-(1H-1,2,3-triazol-1-yl)acetamide] | 68 |
| Cc1ccc(C(C(=O)NCC2CCCO2)N(CC(C)C)C(=O)Cc2c[nH]cn2)cc1 (stereo not shown) [49 (mix), 2-(1H-imidazol-4-yl)-N-(2-methylpropyl)-N-{1-(4-methylphenyl)-2-oxo-2-[(tetrahydrofuran-2-ylmethyl)amino]ethyl}acetamide] | 14700 |
